Our source for the IC50 values is ChEMBL document CHEMBL3886808, “Pyrrolidine derivatives and their use as complement pathway modulators” (2016).

The test concerns the target Complement factor D (Homo sapiens, UniProt P00746). The experiment in a line: In Vitro Assay: Recombinant human factor D (expressed in E. coli and purified using standard methods) at 10 nM concentration is incubated with test compound at various concentrations for 1 hour at room temperature in 0.1 M Hepes buffer, pH 7.5, containing 1 mM MgCl2, 1 M NaCl and 0.05% CHAPS. A synthetic substrate Z-Lys-thiobenzyl and 2,4-dinitrobenzenesulfonyl-fluoresceine are added to final concentrations of 200 μM and 25 μM, respectively. The increase in fluorescence is recorded at excitation of 485 nm and emission at 535 nm in a microplate spectrofluorimeter.

Sequence of Complement factor D (P00746 whole entry): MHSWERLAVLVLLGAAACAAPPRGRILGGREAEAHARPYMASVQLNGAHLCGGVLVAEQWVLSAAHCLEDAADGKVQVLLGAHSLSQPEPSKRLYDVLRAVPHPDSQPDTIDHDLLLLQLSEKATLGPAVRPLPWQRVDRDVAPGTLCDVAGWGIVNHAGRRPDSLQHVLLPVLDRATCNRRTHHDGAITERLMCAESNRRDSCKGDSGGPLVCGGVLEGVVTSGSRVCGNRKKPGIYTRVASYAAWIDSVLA

With `CC(=O)c1nn(CC(=O)N2[C@@H]3C[C@@H]3C[C@H]2C(=O)NCCCC(F)(F)F)c2ncccc12`, the IC50 (commonly the midpoint of a concentration-inhibition curve) amounted to 1140 nM.
Then `CC(F)(F)CCNC(=O)[C@@H]1C[C@H]2C[C@H]2N1C(=O)Cn1nc(C(N)=O)c2ccccc21`, with 1050 nM.
